Patent US11235020B2, “Methods and compositions for inhibiting glyoxalase 1 (GLO1)” (priority 2013, dated 2022)

Key:
[1] = tested on: GABAA receptors in hippocampal neurons; assay: Whole-cell patch clamp in hippocampal neurons (HN); type: cell-based, rat; settings: for increase of GABA-evoked currents: 500 nM modulator co-applied with 10 μM GABA; for increase of MG-evoked currents: 500 nM modulator co-applied with 10 μM MG
Description: (§1) Reagents: All reagents were obtained from Sigma-Aldrich.
Neurons were maintained in neurobasal medium with B27 supplement and glutamax in a humidified atmosphere with 5% CO2 at 37° C.
(§2) Filter and sampling frequencies were 5 and 25 kHz, respectively, for voltage-clamp experiments and 1 and 10 kHz, respectively, for current-clamp recording. Experiments were performed at 32° C. using a feedback-controlled heated perfusion system (Warner Instruments). Vm, ligand-gated currents, and potassium channel currents were studied in a bath solution containing 1 mM CaCl2, 1 mM MgCl2, 4 mM KCl, 140 mM NaCl, 5 mM glucose, and 10 mM HEPES (pH 7.4). […] Electrodes were coated with Sigmacote (Sigma) prior to use.
(§3) Ligand-gated currents: Ligand-gated currents were studied in voltage-clamp mode by application of reagents to cells held at −50 mV.

locomotion in Cd-1 mice = assay: Open field test after i.p. glyceraldehyde; type: in vivo, mouse; settings: GA i.p., tested 10 min after injection
Description: GA is rapidly converted into MG. Cd-1 mice (Charles River, Portage Mich.) were treated i.p. With vehicle (0.9% NaCl) or GA at the indicated doses. Ten minutes after injection, mice were tested in the open field (OF) test (locomotor chambers). Behavioral data were collected at 5 and 10 minutes. Because vehicle-treated mice differed in total distance traveled between the testing days, the data were not combined into a single analysis. Statistical analyses included repeated-measures anova for the factor treatment. The repeated measures were total distance (at 5 and 10 min) and % center time (at 5 and 10 min). For comparison of vehicle and GA at individual time points, a t-test was used. […] This would be an additional means of obtaining desirable clinical effects, including anxiolytic, antidepressant, anti-epileptic, and induction of sleep.

[2] = tested on: GABAA receptors in macropatches excised from CGN; assay: Macropatch recording from CGN; type: cell-based, rat; settings: 10 μM; SR 10 μM at the extracellular face (pipette)
Description: Macropatch recording: Macropatch recording was performed with 1.5-2 MΩ electrodes filled with bath solution. The inside of excised patches was perfused with electrode solution containing the indicated reagents. SR was added to the electrode where indicated.

[3] = tested on: GABAA receptors in cerebellar granule neurons; assay: Whole-cell patch clamp in cerebellar granule neurons (CGN); type: cell-based, rat
Description: as §1
Culture of rat CGN: CGN were cultured from mixed-sex Sprague-Dawley rats. Tissue was dissected from 6- to 8-day-old rats. Cells were suspended in minimal essential medium supplemented with 10% fetal calf serum, 26 mM glucose, 19 mM KCl, 2 mM 1-glutamine, and penicillin/streptomycin (50 IU/ml and 50 μg/ml). Cells were seeded on poly-1-lysine-coated coverslips and incubated in a humidified atmosphere containing 5% CO2 at 37° C. After 48 hours, the culture medium was replaced with minimal essential medium supplemented with 10% horse serum, 26 mM glucose, 19 mM KCl, 2 mM 1-glutamine, penicillin/streptomycin (50 IU/ml and 50 μg/ml), and 80 μM 1-fluorodeoxyuridine. Culture medium was exchanged every three days. All recordings were made from cells between days 6 to 9 in culture.
as §2, §3

[4] = tested on: depression-like behavior in mice; assay: Chronic forced swim test (cFST), osmotic minipump; type: in vivo, mouse; settings: fluoxetine 18 mg/kg/day, 14 days
Description: To fully assess the therapeutic potential of GLO1 inhibitors, it is necessary to utilize behavioral models sensitive to chronic administration. These models are highly informative as the therapeutic onset of antidepressant action mimics clinical onset in humans. pBBG was administered by osmotic minipumps (Alzet) for 14 days at various doses (0, 5, 10, 15, 30 and 60 mg/kg/day) to establish a dose response curve. Osmotic minipumps are ideal for chronic treatment as they release a constant volume at a very slow rate minimizing the stress of multiple injections.

[5] = tested on: anxiety-like behavior in C57BL6/J mice; assay: OFT after bilateral microinjection into the basolateral amygdala (BLA); settings: midazolam 4 mM, 0.5 ul bilateral into BLA, over 30 m
[6] = tested on: anxiety-like behavior and locomotion in mice; assay: Open field (OF) test; type: in vivo, mouse; settings: B6 mice
Description: OF test: Mice were placed into the center of the OF, and activity was monitored for five to ten minutes. The apparatus was illuminated to approximately 40 lux. Data were collected and processed using the manufacturer's software (AccuScan Instruments).
OF test: Ten minutes post-injection, mice were placed into the center of the OF. The apparatus was illuminated to approximately 40 lux. Behavior was measured as described above.
OF test replication studies: Ten to twenty minutes post-injection, mice were tested in the OF for five to ten minutes. In some experiments, behavior was scored as described above. In other experiments, mice were tested in the OF, and behavior was automatically scored by the Noldus Ethovision System. For mice tested in the Noldus system, the apparatus was illuminated to approximately 1,000 lux.
Chronic MG administration: For five days, mice were injected twice daily with vehicle or MG (4 mg/kg). Twelve hours after the final injection, mice were tested in the OF as described above.
Pure MG: Pure MG was obtained from Dr. John Termini at the City of Hope, Duarte, Calif. It was administered at the indicated doses by i.p. injection. Mice were tested as described above.
OF test: Two hours post-injection, mice were tested in the OF test as described above. The center size was 10×10 cm. The apparatus was illuminated to approximately 40 lux.

mice = assay: Hypothermia (rectal temperature); type: in vivo, mouse; settings: 300 mg/kg i.p., B6 mice
Description: Hypothermia: Thirty minutes post-injection, rectal temperature was measured with a digital thermometer.

[7] = tested on: motor coordination in mice; assay: Balance beam test; type: in vivo, mouse; settings: 300 mg/kg i.p., B6 mice
Description: The balance beam was 97 cm×9.5 mm and elevated to 46 cm. Mice were tested on the balance beam, and missteps were counted.
Balance beam: The balance beam test was performed as described above. Ten minutes post-injection, mice were tested on the balance beam, and missteps were recorded.

Compound: CN1C(=O)CN=C(c2ccccc2)c2cc(Cl)ccc21 [Diazepam, diazepam]
- increase of GABA-evoked currents [1]: approximately 45%
- increase of MG-evoked currents [1]: approximately 60%

Compound: O=CC(O)CO (stereo not drawn) [GA, glyceraldehyde]
- locomotor effect in the open field (locomotion in Cd-1 mice): has locomotor depressant effects

Compound: NCCCC(=O)O [GABA, gamma-aminobutyric acid, reference compound]
- current on application to the intracellular face of macropatches [2]: did not elicit a current

Compound: Br.COc1ccc(-c2ccc(=N)n(CCCC(=O)O)n2)cc1 [SR, reference compound]
- inhibition of Vm changes induced by MG and GABA ([3]; 10 μM SR, 10 μM MG or GABA): > 95%
- inhibition of current-density changes induced by MG and GABA ([3]; 10 μM SR, 10 μM MG or GABA): > 95%
- current on application to the intracellular face of macropatches [2]: this current was inhibited when SR was applied to the extracellular face

Compound: CNCCC(Oc1ccc(C(F)(F)F)cc1)c1ccccc1 (stereo not drawn) [fluoxetine]
- depression-like behavior in the cFST [4]: reduces depression-like behavior in the forced swim test

Compound: Cc1ncc2n1-c1ccc(Cl)cc1C(c1ccccc1F)=NC2 [midazolam]
- increase of GABA-evoked currents [1]: approximately 27%
- increase of MG-evoked currents [1]: approximately 40%
- center duration in the OFT [5]: increased center duration in the OFT

Compound: CC(=O)C=O [pure MG, methylglyoxal]
- time in the center of the OF ([6]; pure MG 5 mg/kg, 10 min later): increased time in the center of the OF
- total distance traveled in the OF ([6]; pure MG 300 mg/kg): reduced total distance traveled in the OF
- hypothermia (mice): caused hypothermia
- footslips on the balance beam (ataxia) [7]: increased footslips on the balance beam
- inward currents in CGN ([3]; 10 μM): evoked inward currents in CGN

Compound: Cc1ccc(-c2nc3ccc(C)cn3c2CC(=O)N(C)C)cc1 [zolpidem]
- increase of GABA-evoked currents [1]: approximately 17%
- increase of MG-evoked currents [1]: approximately 15%
